Values quoted from earlier work, collected in US20040147564A1, “Combinations of glimepiride and the thiazolidinedione for treatment of diabetes” (priority 2003, published 2004).

What was measured:
[1] = not given; remark: listed apart in the source
[2] = not given; remark: listed apart in the source

Row | Solubility in buffered aqueous solution (pH of 2.3) | Elimination half-life ([1]; at steady state after oral administration) [h] | Terminal half-life ([1]; in vivo) | Solubility in water (at 25° C.) [µg/mL] | SMILES | Reduction of absolute HbA1c levels ([2]; human, in vivo) | Increase of plasma insulin levels ([2]; patients with type 2 diabetes) [%]
1 | readily soluble |  |  |  | CN(CCOc1ccc(CC2SC(=O)NC2=O)cc1)c1ccccn1 (stereo not drawn) [Rosiglitazone, rosiglitazone] |  | 
2 |  | 5 to 8 | more than 5 hours | ≤ 100 | CCC1=C(C)CN(C(=O)NCCc2ccc(S(=O)(=O)NC(=O)N[C@H]3CC[C@H](C)CC3)cc2)C1=O [glimepiride, 1-[[p-[2-(3-ethyl-4-methyl-2-oxo-3-pyrroline-1-carboxamido)ethyl]phenyl]sulfonyl]-3-(trans-4-methylcyclohexyl)urea] | 1-2% | ≤ 50
